Measurements: US7598245B2 (Vertex Pharmaceuticals Incorporated, priority 2003, dated 2009)
pKi: −log10 of the molar value.

Target: T1, human Src kinase (Homo sapiens, UniProt P12931)
T1 construct: 25 nM of recombinant human Src kinase
Assay: Src inhibition assay B: spectrophotometric (uv-vis) coupled enzyme assay
Type: biochemical
Conditions: 100 μM ATP
Description: The compounds are evaluated as inhibitors of human Src kinase using either a radioactivity-based assay or spectrophotometric assay.
Src Inhibition Assay B: Spectrophotometric Assay
The ADP produced from ATP by the human recombinant Src kinase-catalyzed phosphorylation of poly Glu-Tyr substrate is quantified using a coupled enzyme assay [Fox et al. Protein Sci. 1998, 7, 2249]. In this assay one molecule of NADH is oxidised to NAD for every molecule of ADP produced in the kinase reaction. The disappearance of NADH is conveniently followed at 340 nm.
The following are the final concentrations of the assay components: 0.025 M HEPES (pH 7.6), 10 mM MgCl2, 2 mM DTT, 0.25 mg/ml poly Glu-Tyr, and 25 nM of recombinant human Src kinase. Final concentrations of the components of the coupled enzyme system are 2.5 mM phosphoenolpyruvate, 200 μM NADH, 30 μg/ml pyruvate kinase and 10 μg/ml lactate dehydrogenase.
In a typical assay, all the reaction components with the exception of ATP are pre-mixed and aliquoted into assay plate wells. Inhibitors dissolved in DMSO are added to the wells to give a final DMSO concentration of 2.5%. The assay plate is incubated at 30° C. for 10 min before initiating the reaction with 100 μM ATP. The absorbance change at 340 nm with time, the rate of the reaction, is monitored on a molecular devices plate reader. The data of rate as a function of the inhibitor concentration is fitted to competitive inhibition kinetics model to get the Ki for the compound.

T1 sequence (P12931 whole entry): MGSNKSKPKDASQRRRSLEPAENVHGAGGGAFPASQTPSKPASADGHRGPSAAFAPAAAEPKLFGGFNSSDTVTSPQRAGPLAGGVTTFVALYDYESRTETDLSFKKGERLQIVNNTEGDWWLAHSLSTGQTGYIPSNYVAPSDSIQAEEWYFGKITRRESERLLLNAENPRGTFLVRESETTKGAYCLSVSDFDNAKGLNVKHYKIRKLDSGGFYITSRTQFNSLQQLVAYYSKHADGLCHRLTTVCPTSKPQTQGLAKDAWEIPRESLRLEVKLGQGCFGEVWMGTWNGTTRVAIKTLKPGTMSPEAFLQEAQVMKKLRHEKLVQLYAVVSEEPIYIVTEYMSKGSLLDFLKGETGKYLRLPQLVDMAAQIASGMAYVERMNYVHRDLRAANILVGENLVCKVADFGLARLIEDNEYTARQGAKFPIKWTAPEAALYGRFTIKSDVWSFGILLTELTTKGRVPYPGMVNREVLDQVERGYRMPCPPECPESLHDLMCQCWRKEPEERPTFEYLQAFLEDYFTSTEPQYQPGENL

pKi | SMILES
> 6.30 | c1ccc(Nc2ncn(-c3ccnc(N4CCCCC4)c3)n2)cc1 [Compound I-49, phenyl-[1-(3,4,5,6-tetrahydro-2H-[1,2′]bipyridinyl-4′-yl)-1H-[1,2,4]triazol-3-yl]-amine]
> 6.30 | c1ccc(Nc2ncn(-c3ccnc(NC4CCCCC4)c3)n2)cc1 [Compound I-50]
< 6.00 | CN(CCO)c1cc(-n2cnc(Nc3ccccc3)n2)ccn1 [Compound I-51]
> 6.30 | c1ccc(Nc2ncn(-c3ccnc(N4CCCCCCC4)c3)n2)cc1 [Compound I-52]
< 6.00 | CN(C)CCCN(C)c1cc(-n2cnc(Nc3ccccc3)n2)ccn1 [Compound I-53]
> 6.30 | CCN(CCO)c1cc(-n2cnc(Nc3ccccc3)n2)ccn1 [Compound I-54]
6.00 to 6.30 | CN(Cc1cccnc1)c1cc(-n2cnc(Nc3ccccc3)n2)ccn1 [Compound I-57]
< 6.00 | COCCN(C)c1cc(-n2cnc(Nc3ccccc3)n2)ccn1 [Compound I-59, (2-methoxy-ethyl)-methyl-[4-(3-phenylamino-[1,2,4]triazol-1-yl)-pyridin-2-yl]-amine]
< 6.00 | CCN(CC)CCNc1cc(-n2cnc(Nc3ccccc3)n2)ccn1 [Compound I-60]
> 6.30 | CN1C(C)(C)CC(Nc2cc(-n3cnc(Nc4ccccc4)n3)ccn2)CC1(C)C [Compound I-61]
6.00 to 6.30 | CC(C)CCN(C)c1cc(-n2cnc(Nc3ccccc3)n2)ccn1 [Compound I-62, methyl-(3-methyl-butyl)-[4-(3-phenylamino-[1,2,4]triazol-1-yl)-pyridin-2-yl]-amine]
< 6.00 | O=c1[nH]c2ccccc2n1C1CCN(c2cc(-n3cnc(Nc4ccccc4)n3)ccn2)CC1 [Compound I-63]
< 6.00 | O=C(C1CCCO1)N1CCN(c2cc(-n3cnc(Nc4ccccc4)n3)ccn2)CC1 (centres unmarked) [Compound I-64]
< 6.00 | CCCC(=O)N1CCCN(c2cc(-n3cnc(Nc4ccccc4)n3)ccn2)CC1 [Compound I-68]
< 6.00 | CC(C)C(=O)N1CCCN(c2cc(-n3cnc(Nc4ccccc4)n3)ccn2)CC1 [Compound I-69]
< 6.00 | CC(C)CC(=O)N1CCCN(c2cc(-n3cnc(Nc4ccccc4)n3)ccn2)CC1 [Compound I-70]
< 6.00 | CCOC(=O)c1ccc(Nc2ncn(-c3ccnc(N4CCCN(C(C)=O)CC4)c3)n2)cc1 [Compound I-76]
6.00 to 6.30 | O=C(Nc1cc(-n2cnc(Nc3ccccc3)n2)ccn1)C1CCCCC1 [Compound I-93]
> 6.30 | O=C(CC1CCCC1)Nc1cc(-n2cnc(Nc3ccccc3)n2)ccn1 [Compound I-94, 2-Cyclopentyl-N-[4-(3-phenylamino-[1,2,4]triazol-1-yl)-pyridin-2-yl]-acetamide]
> 6.30 | O=C(CCc1ccccc1)Nc1cc(-n2cnc(Nc3ccccc3)n2)ccn1 [Compound I-95]
> 6.30 | O=C(Cc1ccccc1)Nc1cc(-n2cnc(Nc3ccccc3)n2)ccn1 [Compound I-96]
> 6.30 | CC(C)(C)CC(=O)Nc1cc(-n2cnc(Nc3ccccc3)n2)ccn1 [Compound I-102]
< 6.00 | c1ccc(-n2cnc(Nc3ccc(N4CCOCC4)cc3)n2)cc1 [Compound I-106]
< 6.00 | c1ccc(-n2cnc(Nc3ccnc(NCCN4CCOCC4)c3)n2)cc1 [Compound I-107]
< 6.00 | c1ccc(-n2cnc(Nc3ccc(N4CCOCC4)nc3)n2)cc1 [Compound I-134]
< 6.00 | CN1CCN(c2ccc(Nc3ncn(-c4ccccc4)n3)cn2)CC1 [Compound I-135]
